These are literature values, as cited in patent US10287258B2, “Certain (2S)-N-[(1S)-1-cyano-2-phenylethyl]-1,4-oxazepane-2-carboxamides as dipeptidyl peptidase 1 inhibitors” (AstraZeneca AB, priority 2014, dated 2019).

For this data set the following is noted: literature (Schmidt et al. 1984); cited from earlier work.

SMILES strings stand for the structures.

`CC(c1ccc(Cl)c(Cl)c1)N1N=C(N)CC1=O` (stereo not shown) [muzolimine]: the “retention in the aorta in QWBA studies” value is recorded as “retained selectively in the aorta”.
